# Laboratory results published in patent US12642768B2, “Lipid nanoparticles” (Beijing Jitai Life Sciences Ltd, priority 2022, dated 2026).
# Experiments:
# [1] = Particle size and PDI of lipid nanoparticles by dynamic light scattering; format: physicochemical; conditions: for Particle size dispersity (PDI): LNP 50:38.5:10:1.5, N/P 6, luciferase mRNA
# Description: (§1) Lipid nanoparticles were prepared by (1) dissolving and mixing ionizable lipid compounds, cholesterol, phospholipids and polyethylene glycolated lipids in ethanol at (molar percentages) 50%, 38.5%, 10% and 1.5%, respectively; (2) dissolving the mRNA active ingredient in 25 mM sodium acetate solution (pH=4.5); (3) using an automated high-throughput microfluidic system to mix the organic phase containing the lipid mixture and the aqueous phase containing the mRNA component in the flow ratio range of 1:1 to 1:4 at a mixing speed of 10 mL/min to 18 mL/min; (4) the prepared lipid nanoparticles (N/P ratio of 6) were diluted with phosphate buffer solution and the nanoparticle solutions were ultrafiltered to the original preparation volume using ultrafiltration tubes (purchased from Millipore) with a cut-off molecular weight of 30 kDa; and (5) the obtained nanoparticles were filtered through a sterile 0.2 μm filter membrane and then stored in a sealed glass vial at low temperature.
# The particle size and particle size dispersity index (PDI) of the prepared lipid nanoparticles were measured using a Zetasizer Pro (purchased from Malvern Instruments Ltd) and a DynaPro NanoStar (purchased from Wyatt) dynamic light scattering instrument. The degree of RNA encapsulation by lipid nanoparticles was characterized by the Encapsulation Efficiency %, which reflects the degree of binding of lipid nanoparticles to RNA fragments. This parameter was measured by the method of Quant-it™ RiboGreen RNA Assay (purchased from Invitrogen). Lipid nanoparticle samples were diluted in TE buffer (10 mM Tris-HCl, 1 mM EDTA, pH=7.5). A portion of the sample solution was removed, to which 0.5% Triton (Triton X-100) was added, and then allowed to stand at 37° C. for 30 minutes. Immediately after the addition of RIBOGREEN® reaction solution, the fluorescence values were read on a Varioskan LUX multifunctional microplate reader (purchased from Thermofisher) at 485 nm for absorption and 528 nm for emission to give the encapsulation efficiency values.
# [2] = system: C57BL/6 mice; assay: Animal experiment: in vivo bioluminescence after i.v. lipid nanoparticles encapsulated with luciferase mRNA; conditions: compound 20 vs. D1, compound 46 vs. D2
# Description: The delivery effect and safety of nanoparticles encapsulated with luciferase mRNA (Trilink, L-7202) in mice were evaluated. The test mice were SPF-grade C57BL/6 mice, female, 6-8 weeks old, weighing 18-22 g, and were purchased from SPF (Beijing) Biotechnology Co., Ltd. All animals were acclimatized for more than 7 days prior to the experiment, and had free access to food and water during the experiment. The conditions include alternating light and dark for 12/12 h, the indoor temperature of 20-26° C. and the humidity of 40-70%. The mice were randomly grouped. […] The anesthetized mice were placed in IVIS for fluorescence imaging, and data acquisition and analysis were performed on the concentrated distribution area of fluorescence.
# The in vivo delivery efficiency of lipid nanoparticle carriers was expressed as the mean values of fluorescence intensity and total photon count in different animals within the same subject group, as shown in Table 5. Higher values of fluorescence intensity and total photon count indicate higher in vivo delivery efficiency of this mRNA fragment by lipid nanoparticles. […]
# [3] = Encapsulation efficiency by Quant-it RiboGreen RNA Assay; format: physicochemical; conditions: LNP 50:38.5:10:1.5, N/P 6, luciferase mRNA
# Description: as §1
# The particle size and particle size dispersity index (PDI) of the prepared lipid nanoparticles were measured using a Zetasizer Pro (purchased from Malvern Instruments Ltd) and a DynaPro NanoStar (purchased from Wyatt) dynamic light scattering instrument. […] This parameter was measured by the method of Quant-it™ RiboGreen RNA Assay (purchased from Invitrogen). […]
Particle size dispersity (PDI) [1],Compound,also measured
0.05,CCCCCCCCCCSC(=O)C(C)(C)CCCCCC(CCCCCC(C)(C)C(=O)OCCCCCCCCC)OC(=O)CCCN(C)C (centres unmarked) [Compound 40],–
0.05,CCCCCCCCCOC(=O)C(C)(C)CCCCCC(CCCCCC(C)(C)C(=O)SCCCCCCCCC)OC(=O)CCCN(C)C (centres unmarked) [Compound 41],–
0.07,CCCCCCC#CCOC(=O)C(C)(C)CCCCCC(CCCCCC(C)(C)C(=O)OCCCCCCCCC)OC(=O)CCCN(C)C (centres unmarked) [Compound 42],–
0.09,CCCCCCCCCOC(=O)C(C)(C)CCCCCC(CCCCCC(C)(C)C(=O)OCC(CCCCC)CCCCCCC)OC(=O)CCCN(C)C (centres unmarked) [Compound 46],in vivo delivery efficiency compared with the molecule without tetramethyl [2]: significantly increased in vivo delivery efficiency
0.05,CCCCCCCCCCOC(=O)C(C)(C)CCCCCC(CCCCCC(C)(C)C(=O)OCCCCCCCCCC)OC(=O)CCN1CCOCC1 [Compound 90],–
0.05,CCCCCCCCCCOC(=O)C(C)(C)CCCCCC(CCCCCC(C)(C)C(=O)OCCCCCCCCCC)OC(=O)CN1CCOCC1 [Compound 91],–
0.05,CCCCCCCCCCOC(=O)C(C)(C)CCCCCC(CCCCCC(C)(C)C(=O)OCCCCCCCCCC)OC(=O)CCN1CCCC1 [Compound 92],–
0.13,CCCCCCC/C=C\COC(=O)CC(C)(C)CCCCC(CCCCC(C)(C)CC(=O)OCC(CCCCC)CCCCCCC)OC(=O)CCCN(C)C (centres unmarked) [Compound 98],–
0.07,CCCCCCCCOC(=O)C(C)(C)CCCCCC(CCCCCC(C)(C)C(=O)OCCCCCCCC)OC(=O)C1CCN(C)CC1 [Compound 100],–
0.06,CCCCCCCCOC(=O)C(C)(C)CCCCCC(CCCCCC(C)(C)C(=O)OCCCCCCCC)OC(=O)C1CCN(C(C)C)CC1 [Compound 101],–
0.03,CCCCCCCCCOC(=O)C(C)(C)CCCCCC(CCCCCC(C)(C)C(=O)OCCCCCCCCC)OC(=O)C1CCN(C)CC1 [Compound 102],–
0.04,CCCCCCCCCOC(=O)C(C)(C)CCCCCC(CCCCCC(C)(C)C(=O)OCCCCCCCCC)OC(=O)C1CCN(C(C)C)CC1 [Compound 103],–
0.06,CCCCCCCCCCSC(=O)C(C)(C)CCCCCC(CCCCCC(C)(C)C(=O)SCCCCCCCCCC)OC(=O)C1CCN(C)CC1 [Compound 104],–
0.05,CCCCCCCCCCSC(=O)C(C)(C)CCCCCC(CCCCCC(C)(C)C(=O)SCCCCCCCCCC)OC(=O)C1CCN(C(C)C)CC1 [Compound 105],–
0.05,CCCCCCCCCSC(=O)C(C)(C)CCCCCC(CCCCCC(C)(C)C(=O)SCCCCCCCCC)OC(=O)C1CCN(C)CC1 [Compound 106],–
0.05,CCCCCCCCCSC(=O)C(C)(C)CCCCCC(CCCCCC(C)(C)C(=O)SCCCCCCCCC)OC(=O)C1CCN(C(C)C)CC1 [Compound 107],–
0.05,CCCCCCCCCSC(=O)C(C)(C)CCCCCC(CCCCCC(C)(C)C(=O)SCCCCCCCCC)OC(=O)CC1CCN(C)CC1 [Compound 108],–

Particle size dispersity (PDI) [1],Compound,also measured
0.06,CCCCCCCCCSC(=O)C(C)(C)CCCCCC(CCCCCC(C)(C)C(=O)SCCCCCCCCC)OC(=O)CC1CCN(CC)CC1 [Compound 109],–
0.06,CCCCCCCCCOC(=O)C(C)(C)CCCCCC(CCCCCC(C)(C)C(=O)OCC(CCCCC)CCCCCCC)OC(=O)CC1CCN(C)CC1 (centres unmarked) [Compound 111],–
0.08,CCCCCCCCCSC(=O)C(C)(C)CCCCCC(CCCCCC(C)(C)C(=O)OCC(CCCCC)CCCCCCC)OC(=O)CC1CCN(C)CC1 (centres unmarked) [Compound 112],–
0.04,CCCCCCCC#CCOC(=O)C(C)(C)CCCCCC(CCCCCC(C)(C)C(=O)OCCCC(CCCCC)CCCCC)OC(=O)CCCN(C)C (centres unmarked) [Compound 115],–
0.05,CCCCCCCC#CCOC(=O)C(C)(C)CCCCCC(CCCCCC(C)(C)C(=O)OCC(CCCCC)CCCCCCC)OC(=O)CCCN(C)C (centres unmarked) [Compound 116],–
0.06,CCCCC(CC#CCOC(=O)C(C)(C)CCCCCC(CCCCCC(C)(C)C(=O)OCC#CCC(CCCC)CCCC)OC(=O)CCCN(C)C)CCCC [Compound 117],–
0.07,CCCCCCCCCOC(=O)C(C)(C)CCCCCC(CCCCCC(C)(C)C(=O)OCC#CC(CCCCCC)CCCCCC)OC(=O)CCCN(C)C (centres unmarked) [Compound 118],–
0.05,CCCCCCCCCSC(=O)C(C)(C)CCCCCC(CCCCCC(C)(C)C(=O)OCC#CCCC(CCCC)CCCC)OC(=O)CCCN(C)C (centres unmarked) [Compound 119],"Particle size (nm) ([1]; LNP ionizable lipid:cholesterol:DSPC:DMG-PEG2000 50:38.5:10:1.5, N/P 6, luciferase mRNA): 80.98 nm; Encapsulation efficiency (%) [3]: 86.92%"
0.07,CCCCCCCCCOC(=O)C(C)(C)CCCCC(CCCCC(C)(C)C(=O)OCC(CCCCC)CCCCCCC)OC(=O)CCCN(C)C (centres unmarked) [Compound 122],–
0.05,CCCCCCCCCCOC(=O)C(C)(C)CCCCC(CCCCC(C)(C)C(=O)OCC(CCCCC)CCCCCCC)OC(=O)CCCN(C)C (centres unmarked) [Compound 123],–
0.07,CCCCCCCCCOC(=O)C(C)(C)CCCCCCC(CCCCCCC(C)(C)C(=O)OCC(CCCCC)CCCCCCC)OC(=O)CCCN(C)C (centres unmarked) [Compound 125],–
0.06,CCCCCCCCCOC(=O)C(C)(C)CCCCCCC(CCCCCCC(C)(C)C(=O)OCC(CCCCC)CCCCCCC)OC(=O)CCCCN(C)C (centres unmarked) [Compound 126],–
0.05,CCCCCCC(CCCCCC)CCOC(=O)CCC(C)(C)CCCC(CCCC(C)(C)CCC(=O)OCCC(CCCCCC)CCCCCC)OC(=O)CCCN(C)C [Compound 128],–
0.06,CCCCCCCC(CCCCCCC)COC(=O)CCC(C)(C)CCCC(CCCC(C)(C)CCC(=O)OCC(CCCCCCC)CCCCCCC)OC(=O)CCCN(C)C [Compound 129],–
0.18,"CCCCCCCCCOC(=O)CCCCCCC(CCCCCCC(=O)OCCCCCCCCC)OC(=O)CCCN(C)C [D1, reference compound]",–
0.20,"CCCCCCCCCOC(=O)CCCCCCC(CCCCCCC(=O)OCC(CCCCC)CCCCCCC)OC(=O)CCCN(C)C (centres unmarked) [D2, reference compound]",–
0.04,"CCCCC/C=C\C/C=C\CCCCCCCCC(CCCCCCCC/C=C\C/C=C\CCCCC)OC(=O)CCCN(C)C [DLin-MC3-DMA, reference compound]",Encapsulation efficiency (%) [3]: 95.62%

Compound,Particle size dispersity (PDI) [1],also measured
CCCCCCCCCOC(=O)CC(C)(C)CCCCC(CCCCC(C)(C)CC(=O)OCCCCCCCCC)OC(=O)CCCN(C)C [Compound 97],0.25,–
CCCCCCCCCCOC(=O)C(C)(C)CCCCCC(CCCCCC(C)(C)C(=O)OCCCCCCCCCC)OC(=O)C1CCN(C)CC1 [Compound 99],0.05,–
CCCCCCCCCSC(=O)C(C)(C)CCCCCC(CCCCCC(C)(C)C(=O)SCCCCCCCCC)OC(=O)CC1CCN(CCO)CC1 [Compound 110],0.01,–
CCCCCCCCCOC(=O)C(C)(C)CCCCCC(CCCCCC(C)(C)C(=O)OCCCCCCCCC)OC(=O)CC1CCN(CCO)CC1 [Compound 113],0.03,–
CCCCCCCCCOC(=O)C(C)(C)CCCCCC(CCCCCC(C)(C)C(=O)OCC(CCCCC)CCCCCCC)OC(=O)CC1CCN(CCO)CC1 (centres unmarked) [Compound 114],0.04,–
CC(C)CCCCCCCOC(=O)CCC(C)(C)CCCC(CCCC(C)(C)CCC(=O)OCCCCCCCC(C)C)OC(=O)CCCN(C)C [Compound 127],0.05,–
